{"source": "patent US20260101892A1", "about": "“METHOD TO INHIBIT PROLIFERATION OF A PHYTOPATHOGEN ON PLANTS AND COMPOSITIONS USED FOR THIS PURPOSE” (CYSBIO APS, priority 2022, published 2026)", "key": {"Ustilago nuda": {"system": "Ustilago nuda", "assay": "Loose smut of barley", "assay_type": "in vivo", "settings": "crop Barley"}, "Aspergillus niger": {"system": "Aspergillus niger", "settings": "Common mold; N/A (In vitro); Villa et al 2010; cited from earlier work"}, "Penicillium citrinum": {"system": "Penicillium citrinum", "settings": "Mold on citrus fruits; N/A (In vitro); Villa et al 2010; cited from earlier work"}, "Alternaria alternata": {"system": "Alternaria alternata", "assay": "Post-harvest preservation of capsicums", "assay_type": "in vivo", "settings": "capsicums sprayed twice, 10° C., followed 25 days, triplicate", "procedure": "(§1) To investigate if zosteric acid and/or coumaric acid can protect fruit and vegetables against post-harvest infection with different fungi, zosteric and coumaric acids fungicidal effect was tested in capsicums and lemons infected with Alternaria alternata and Penicillium digitatum, respectively. The tests were performed by acquiring the relevant fruit and vegetables from the local supermarket. Both fruit and vegetables were bought as organic produce to ensure a minimum of pesticides had already been applied. […] Each application treatment was performed in triplicate on three separate pieces of produce. After treatment, the produce was allowed to dry in a sterile laminar flow cabinet followed by a second round of application and drying. The produce was then inoculated with the relevant fungal spores using a grafting stick. […] The inoculated produce was subsequently placed in […] plastic bags to prevent contamination with other organisms and to prevent the produce from drying out due to air circulation in the incubator. The wrapped capsicums and lemons were placed at 10° C. and the fungal growth followed by measuring the diameter of the growth from the point of inoculation for 25 days."}, "[1]": {"system": "downy mildew in grapevine (plasmopara viticola)", "assay": "Downy mildew in grapevine, controlled environment trial, foliar spray"}, "Septoria tritici": {"system": "Septoria tritici", "assay": "Septoria leaf blotch", "assay_type": "in vivo"}, "[2]": {"system": "European grapes (Vitis vinifera)", "assay": "Phytotoxicity evaluation in the grapevine downy mildew trial"}, "Magnaporthe grisea": {"system": "Magnaporthe grisea", "settings": "Rice blast; crop Rice; Stanley 2002; cited from earlier work"}, "Puccinia striiformis": {"system": "Puccinia striiformis", "assay": "Yellow rust in wheat, greenhouse trial, contact fungicide", "settings": "crop Wheat", "experimental": "A greenhouse trial was conducted to investigate if zosteric acid could be applied as a contact fungicide to control yellow rust in wheat. Wheat was sowed in one-liter pots, with five replicates per treatment. 14 days after sowing, plants were sprayed with 150 L/ha of 10% zosteric acid with 0.1% Tween. For reference, an untreated control, a treatment with 0.1% Tween, and a treatment with a currently used standard fungicide treatment for yellow rust was also included in the test. One day after spraying of the plants, they were inoculated with Puccinia striiformis which is the causative agent of yellow rust. Plants were assessed for attack with yellow rust 13, 19 and 21 days after infection with yellow rust."}, "tilletia caries": {"system": "tilletia caries", "assay": "Seed dressing against common bunt of wheat", "experimental": "(§2) To investigate if zosteric acid can be applied as a seed dressing agent to prevent different seed borne fungal infections, the ability of zosteric acid to prevent infection of wheat and barley with the common bunt of wheat caused by tilletia caries and barley stribe, caused by pyronophora graminea was tested.\n(§3) To investigate if zosteric acid can be applied as a seed dressing agent to prevent different seed borne fungal infections, the ability of zosteric acid to prevent infection of wheat and barley with the common bunt of wheat caused by tilletia caries and barley stribe, caused by pyronophora graminea) was tested."}, "[3]": {"system": "late potato blight (Phytophtora infestans)", "assay_type": "in vivo, Phytophthora infestans", "settings": "for reduction of pest severity: 5% zosteric acid and 0.3 L/ha BREAK THRU, vs untreated control"}, "Leptosphaeria maculans": {"system": "Leptosphaeria maculans", "assay": "Blackleg disease in winter rape", "assay_type": "in vivo", "settings": "crop Brassica napus / winter rape"}, "[4]": {"system": "Colletotrichum lindemuthianum", "settings": "Bean anthracnose; crop Bean; Stanley 2002; cited from earlier work"}, "[5]": {"system": "potatoes (Solanum tuberosum, variety Venezia)", "assay": "Phytotoxicity assessment in the potato blight climate chamber test", "assay_type": "in vivo", "settings": "throughout the trials (0.1%, 1%, 5% zosteric acid)", "procedure": "The application was conducted with a Research Track Sprayer and three different concentrations of zosteric acid (0.1%, 1%, and 5%) were sprayed one day before pathogen inoculation and two different concentrations of zosteric acid (1% and 5%) were sprayed after inoculation as soon as the infection got visible. Plants were assessed for phytotoxicity and pest severity 0, 4, and 7 days after the curative application."}, "Penicillium digitatum": {"system": "Penicillium digitatum", "assay": "Post-harvest preservation of lemons", "assay_type": "in vivo", "procedure": "as §1"}, "Cercospora beticola": {"system": "Cercospora beticola", "assay": "Cercospora leaf spot disease in sugarbeet", "assay_type": "in vivo", "settings": "crop Beta vulgaris vulg. altissima / sugarbeet"}, "[6]": {"system": "Blumeria graminis f. sp. tritici", "assay": "Powdery mildew in wheat", "assay_type": "in vivo", "settings": "crop Wheat"}, "pyronophora graminea": {"system": "pyronophora graminea", "assay": "Seed dressing against barley stripe", "experimental": "as §2, §3"}, "[7]": {"system": "strawberries (Fragaria sp.)", "assay": "Phytotoxicity evaluation in the strawberry powdery mildew trial", "assay_type": "in vivo", "settings": "at concentrations that control disease"}, "[8]": {"system": "powdery mildew (Podosphaera aphanis)", "assay": "Powdery mildew in strawberries, controlled environment trial", "settings": "crop Strawberries", "experimental": "The efficacy was evaluated as % area of leaves that were infected with disease based on evaluation of 50 leaves from each plant. The evaluation was performed 30 days after the first treatment and 10 days after the last treatment.\nFive different treatments were applied; 1) an untreated control, 2) zosteric acid at 3%, 3) zosteric acid at 6%, 4) zosteric acid at 9%, 5) Karma at 3 kg/ha. […] Four treatment applications were performed at day 0, 7, 14, and 21 respectively. Prior to each application the infection and phytotoxicity of the plants were evaluated and scored."}}, "note": "Where two headings read alike, the source gives them in different places."}
{"smiles": "O=C(O)/C=C/c1ccc(OS(=O)(=O)O)cc1", "note": "[zosteric acid]", "values": [{"measurement": "zosteric acid effective (Yes/No)", "setting": "Ustilago nuda", "value": "no efficacy and No"}, {"measurement": "zosteric acid effective (Yes/No)", "setting": "Aspergillus niger", "value": "Yes"}, {"measurement": "zosteric acid effective (Yes/No)", "setting": "Penicillium citrinum", "value": "Yes"}, {"measurement": "time after inoculation until A. alternata growth was displayed", "setting": "Alternaria alternata", "value": 19, "unit": "days"}, {"measurement": "zosteric acid effective (Yes/No)", "setting": "[1]; Downy mildew in wine, crop Vitis vinifera / European grape", "value": "highly effective and Yes"}, {"measurement": "efficacy compared with positive control Funguran Progress (copper)", "setting": "[1]; Example 9 trial", "value": "comparable to the positive control Funguran Progress"}, {"measurement": "dose response of disease control", "setting": "[1]; increasing doses of zosteric acid, scored 17 days after application", "value": "clear dose response"}, {"measurement": "zosteric acid effective (Yes/No)", "setting": "Septoria tritici", "value": "not effective and No"}, {"measurement": "phytotoxicity", "setting": "[2]; 1% zosteric acid, scored 13 days after application", "value": "< 0.5", "unit": "%"}, {"measurement": "phytotoxicity", "setting": "[2]; 5% treatment, Example 9 trial", "value": 7, "unit": "%"}, {"measurement": "phytotoxic effects", "setting": "[2]; at the effective concentration, scored 13 days after application", "value": "does not have significant phytotoxic effects"}, {"measurement": "phytotoxicity", "setting": "[2]; high concentrations (>2%), scored 13 days after application", "value": "start to be phytotoxic"}, {"measurement": "zosteric acid effective (Yes/No)", "setting": "Magnaporthe grisea", "value": "Yes"}, {"measurement": "zosteric acid effective (Yes/No)", "setting": "Puccinia striiformis", "value": "effective and Yes"}, {"measurement": "zosteric acid effective (Yes/No)", "setting": "tilletia caries; Common bunt of wheat, crop Wheat", "value": "good efficacy and Yes"}, {"measurement": "effect in combination with Redigo Pro", "setting": "tilletia caries; protection against common bunt of wheat, seed dressing", "value": "strong synergistic effect"}, {"measurement": "reduction of percentage of infected plant ears compared to untreated control", "setting": "tilletia caries; wheat seeds treated with 0.1% zosteric acid", "value": "more than 2 fold"}, {"measurement": "reduction of percentage of infected plant ears compared to untreated control", "setting": "tilletia caries; wheat seeds treated with 1% zosteric acid", "value": "more than 2 fold"}, {"measurement": "reduction of pest severity", "setting": "[3]; 0 days from the curative treatment", "value": 7.8, "unit": "%"}, {"measurement": "reduction of pest severity", "setting": "[3]; 4 days from the curative treatment", "value": 7.3, "unit": "%"}, {"measurement": "reduction of pest severity", "setting": "[3]; 7 days from the curative treatment", "value": 6.6, "unit": "%"}, {"measurement": "zosteric acid effective (Yes/No)", "setting": "[3]; Potato blight, crop Solanum tuberosum / potato", "value": "highly effective and Yes"}, {"measurement": "zosteric acid effective (Yes/No)", "setting": "Leptosphaeria maculans", "value": "not effective and No"}, {"measurement": "zosteric acid effective (Yes/No)", "setting": "[4]", "value": "Yes"}, {"measurement": "phytotoxic effects", "setting": "[5]", "value": "No phytotoxic effects were observed"}, {"measurement": "time after inoculation until P. digitatum growth was observed", "setting": "Penicillium digitatum; lemons sprayed twice, 10° C., followed 25 days, triplicate", "value": 19, "unit": "days"}, {"measurement": "replicates with P. digitatum growth at end of test period", "setting": "Penicillium digitatum; lemons, day 25, three replicates", "value": "only a single replicate"}, {"measurement": "zosteric acid effective (Yes/No)", "setting": "Cercospora beticola", "value": "not effective and No"}, {"measurement": "zosteric acid effective (Yes/No)", "setting": "[6]", "value": "not effective and No"}, {"measurement": "zosteric acid effective (Yes/No)", "setting": "pyronophora graminea; Barley stripe, crop Barley", "value": "Yes"}, {"measurement": "reduction of percentage of infected plant ears compared to untreated control", "setting": "pyronophora graminea; barley seeds treated with 0.1% zosteric acid", "value": "more than 2 fold"}, {"measurement": "reduction of percentage of infected plant ears compared to untreated control", "setting": "pyronophora graminea; barley seeds treated with 1% zosteric acid", "value": "more than 2 fold"}, {"measurement": "phytotoxicity", "setting": "[7]", "value": "no phytotoxicity"}, {"measurement": "zosteric acid effective (Yes/No)", "setting": "[8]", "value": "Yes"}]}
